Laboratory results: ChEMBL document CHEMBL4028843, “Synthesis of both enantiomers of 1,2,3,4-tetrahydroisoquinoline derivative IPPAM-1 and enantio-dependency of its positive allosteric modulation of prostacyclin receptor” (Bioorg Med Chem Lett, 2017)

Molecular target: Prostacyclin receptor (Homo sapiens) (UniProt P43119)
Assay: Positive allosteric modulation of human prostacyclin receptor expressed in CHOK1 cells assessed as increase in PGI2-induced cAMP production by measuring 2 fold leftward shift in PGI2 concentration response curve measured after 1 hr
Format: functional, cell-based

Prostacyclin receptor (Homo sapiens), sequence (P43119 whole entry): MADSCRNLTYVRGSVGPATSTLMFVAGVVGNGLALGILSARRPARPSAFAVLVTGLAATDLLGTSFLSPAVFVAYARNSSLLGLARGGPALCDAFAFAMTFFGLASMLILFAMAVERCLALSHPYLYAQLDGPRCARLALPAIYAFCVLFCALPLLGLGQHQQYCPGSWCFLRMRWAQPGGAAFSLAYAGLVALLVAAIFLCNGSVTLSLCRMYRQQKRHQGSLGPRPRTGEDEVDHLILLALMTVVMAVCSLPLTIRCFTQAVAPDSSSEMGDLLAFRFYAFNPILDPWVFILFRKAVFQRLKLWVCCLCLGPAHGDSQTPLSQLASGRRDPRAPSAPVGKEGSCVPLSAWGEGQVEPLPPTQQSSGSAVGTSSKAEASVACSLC

Activity: 3.1 µM
Compound: CC(C)(C)n1nnnc1[C@@H](c1ccccc1)N1CCc2ccccc2C1
